Measurements reported in US9822368B2, “Modulators of intracellular chloride concentration for treating down syndrome” (Fondazione Istituto Italiano di Tecnologia, priority 2013, dated 2017).
“Also recorded” adds a separate entry of the source.

Experiments:
CA1 pyramidal neurons = assay: Cell-attached recording of spontaneous spiking activity in acute hippocampal slices; format: cell-based, Ts65Dn mice; details: Ts65Dn neurons
[1] = tested on: hippocampal CA3 pyramidal neurons; assay: Whole-cell voltage clamp recordings of spontaneous excitatory postsynaptic currents (sEPSCs) in acute brain slices; format: cell-based, Ts65Dn mice; details: acute bumetanide application, P15 Ts65Dn slices, -70 mV
Source text: FIG. 1 represents the effect of acute bumetanide on the spontaneous activity in Ts65Dn mice at P15 compared to control values. Whole-cell voltage clamp recordings of spontaneous excitatory postsynaptic currents (sEPSCs) at −70 mV from individual hippocampal CA3 pyramidal neurons in acute […] brain slices from P15 Ts65Dn. (A) Representative traces of sEPSCs recorded from Ts65Dn mice in control and in the presence of bumetanide. (B) Average values of frequency of sEPSCs recorded in control mice (n=9), in Ts65Dn mice (n=9) **p<0.006 (two-tails two-samples t-test) and with bumetanide application (n=9), ***p<0.001 (two-tails paired t-test).

[2] = tested on: CA1 hippocampal pyramidal neurons; assay: Gramicidin perforated patch-clamp of GABA currents (reversal potential EC1) in hippocampal slices; format: cell-based, Ts65Dn and WT mice; details: for EC1 values: 20 min after bath application of bumetanide (10 μM)
Source text: The vertical dotted lines indicate the value of the reversal potential on the x axis. Insets, sample traces of GABA-induced currents at different holding potentials. Scale bars: vertical, 50 pA; horizontal, 50 ms. […] Average resting potentials (dotted lines) were not different in Ts65Dn and WT neurons.

hippocampal CA3CA1 LTP = assay: Hippocampal CA3-CA1 LTP (fEPSP slope after TBS) in hippocampal slices; format: cell-based, Ts65Dn mice; details: bath application of bumetanide (10 μM), Ts65Dn slices, last 5 min of recordings, 60 min after TBS
Experimental: FIG. 4 represents the effect of bumetanide bath application on hippocampal CA3CA1 LTP in Ts65Dn mice. […] Numbers in parentheses: number of animals utilized. Insets: Average of 10 fEPSP traces recorded for each experimental group before (continuous line) and 60 min after TBS (dashed line). Stimulus artefacts have been deleted from traces for clarity. Scale bars: vertical, 1 mV; horizontal, 10 ms.

Ts65Dn mice [3] = assay: Contextual fear conditioning test; format: in vivo; details: for associative memory (contextual fear conditioning): Ts65Dn mice
Source text: (§1) FIG. 5 represents the effect of bumetanide systemic treatment on cognitive functions in behavioral tasks in Ts65Dn mice. […] (B) Top, schematic representation of the contextual fear conditioning test. […] (C) Top, schematic representation of the object location test. […] (D) Top, schematic representation of the novel object recognition task. […] For all panels, histograms represent average±SEM, whereas circles indicate data from single animals.

Ts65Dn mice [4] = assay: Object location test; format: in vivo
Source text: as §1

Ts65Dn mice [5] = assay: Novel object recognition task; format: in vivo; details: for object novelty discrimination (novel object recognition task): Ts65Dn mice
Source text: as §1

[6] = tested on: children with Down syndrome; details: even at doses associated with adverse effects; cited from earlier work
[7] = summary statement, duration not stated

## NCCCC(=O)O [GABA]
CA1 pyramidal neurons; bath application of GABA (10 μM), 10-12 weeks of age
  spike frequency: increased spike frequency

## CCCCNc1cc(C(=O)O)cc(S(N)(=O)=O)c1Oc1ccccc1 [bumetanide]
[1]
  ongoing excitatory glutamatergic activity (frequency of sEPSCs): reduces elevated glutamatergic activity
CA1 pyramidal neurons; co-treatment GABA and bumetanide (10 μM)
  spike frequency increase induced by GABA: reverted this effect
[2]; Ts65Dn cells
  EC1 values: rescued the depolarized EC1
[2]; WT mice
  EC1 values: unaltered
[2]; Ts65Dn mice, summary statement
  polarity of the actions of GABA: restores LTP, hyperpolarizing GABA actions
Hippocampal CA3CA1 LTP
  LTP (increase in the slope of fEPSP): restores LTP; also recorded: rescued this deficit
Ts65Dn mice [3]; bumetanide systemic treatment for 1 week (1W)
  associative memory (contextual fear conditioning): rescued memory deficit
Ts65Dn mice [3]; bumetanide systemic treatment for 4 weeks (4W)
  associative memory (contextual fear conditioning): rescued memory deficit
Ts65Dn mice [3]; [7]
  memory tests: rescues the behavioral deficient novel object recognition and memory tests
Ts65Dn mice [4]; after 1 week of treatment
  spatial memory (object location test): rescued spatial memory deficits
Ts65Dn mice [4]; after 4 weeks of treatment
  spatial memory (object location test): rescued spatial memory deficits
Ts65Dn mice [5]; [7]
  novel object recognition test: rescues the behavioral deficient novel object recognition
Ts65Dn mice [5]; treatment for 1 week
  object novelty discrimination (novel object recognition task): restored object novelty discrimination
Ts65Dn mice [5]; treatment for 4 weeks
  object novelty discrimination (novel object recognition task): restored object novelty discrimination

## NC(=O)CN1CCCC1=O [piracetam]
[6]
  cognitive and behavioral measures: neither cognitive nor behavioral measures demonstrated improvement
